{"source": "paper PMC8131219", "about": "(Chemical research in toxicology, 2020)", "key": {"[1]": {"molecular_target": "T1, human VMAT2 (Homo sapiens, UniProt Q05940)", "T1 sequence (Q05940 whole entry)": "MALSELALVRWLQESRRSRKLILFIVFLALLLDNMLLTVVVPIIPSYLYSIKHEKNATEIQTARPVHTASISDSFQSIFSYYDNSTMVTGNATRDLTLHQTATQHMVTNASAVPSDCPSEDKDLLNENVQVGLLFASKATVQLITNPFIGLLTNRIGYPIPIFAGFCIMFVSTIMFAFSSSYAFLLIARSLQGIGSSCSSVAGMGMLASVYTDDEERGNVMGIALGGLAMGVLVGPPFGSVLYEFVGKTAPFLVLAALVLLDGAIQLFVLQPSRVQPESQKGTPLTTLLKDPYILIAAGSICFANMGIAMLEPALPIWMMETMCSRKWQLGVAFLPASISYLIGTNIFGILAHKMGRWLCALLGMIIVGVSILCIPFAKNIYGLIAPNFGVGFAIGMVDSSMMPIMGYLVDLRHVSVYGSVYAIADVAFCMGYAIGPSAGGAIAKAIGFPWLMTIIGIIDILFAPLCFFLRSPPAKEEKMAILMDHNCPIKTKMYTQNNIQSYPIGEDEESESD", "assay": "cell-based", "settings": "for VMAT2 inhibitor strength (in words): short-term exposure, up to 100 μM; for Effect on FFN206 uptake / vesicular loading: tested at 0.01, 0.1, 1, 10 and 100 μM"}, "[2]": {"molecular_target": "T1, human VMAT2", "assay": "Real-time uptake of FFN206 with confocal microscopy in HEK+VMAT2 cells", "type": "cell-based", "settings": "20 μM FFN206; one-way ANOVA, p <0.0001 vs HEK+VMAT2"}, "[3]": {"settings": "100 nM rotenone; after 48 hours; from mitochondrial complex I inhibition; cited from earlier work"}}, "note": "Like-named read-outs stand apart in the source and are kept apart here.", "data": [{"molecule": "O=S(=O)(O)C(F)(F)C(F)(F)C(F)(F)C(F)(F)C(F)(F)C(F)(F)C(F)(F)C(F)(F)F", "note": "[PFOS, perfluorooctanesulfonic acid]", "values": [{"measurement": "VMAT2 inhibitor strength (in words)", "setting": "[1]; HEK+VMAT2 cells", "value": "weak inhibitors of VMAT2"}, {"measurement": "Effect on FFN206 uptake / vesicular loading", "setting": "[1]; HEK+VMAT2 cells", "value": "did not show impairment of vesicular loading"}]}, {"molecule": "CO/C1=C\\C(C)=C\\[C@@H](C)[C@@H](O)[C@@H](C)C/C(C)=C/C=C/[C@H](OC)[C@@H]([C@@H](C)[C@@H](O)[C@H](C)[C@@]2(O)C[C@@H](O)[C@H](C)[C@@H](C(C)C)O2)OC1=O", "note": "[bafilomycin, reference compound]", "values": [{"measurement": "Effect on FFN206 fluorescence", "setting": "[1]; HEK+VMAT2 cells, 10 μM tetrabenazine, bafilomycin data not shown", "value": "depleted FFN206 fluorescence"}, {"measurement": "FFN206 fluorescence in final 20 seconds of 1000 seconds uptake vs HEK+VMAT2", "setting": "[2]", "value": "decreased FFN206 fluorescence"}]}, {"molecule": "CCOP(=S)(OCC)Oc1nc(Cl)c(Cl)cc1Cl", "note": "[chlorpyrifos]", "values": [{"measurement": "Effect on FFN206 uptake / vesicular loading", "setting": "[1]; HEK+VMAT2 cells", "value": "minor decrease in FFN206 uptake at the highest concentration"}]}, {"molecule": "CN[C@@H](C)Cc1ccccc1", "note": "[methamphetamine, reference compound]", "values": [{"measurement": "IC50", "setting": "[1]", "value": 2.4, "unit": "µM"}, {"measurement": "Concentration showing essentially complete / total inhibition of VMAT2", "setting": "[1]; HEK+VMAT2 cells, dose response, 1 μM FFN206", "value": "≤ 100", "unit": "µM"}]}, {"molecule": "COC(=O)C(c1ccccc1)C1CCCCN1", "note": "(centres unmarked) [methylphenidate, reference compound]", "values": [{"measurement": "IC50", "setting": "[1]", "value": 94.3, "unit": "µM"}]}, {"molecule": "C[n+]1ccc(-c2cc[n+](C)cc2)cc1", "note": "[paraquat]", "values": [{"measurement": "IC50", "setting": "[1]", "value": 12.4, "unit": "µM"}]}, {"molecule": "C=C(C)[C@H]1Cc2c(ccc3c2O[C@@H]2COc4cc(OC)c(OC)cc4[C@@H]2C3=O)O1", "note": "[rotenone]", "values": [{"measurement": "Concentration at which a reduction in VMAT2 function was detected", "setting": "[1]; HEK+VMAT2 cells, 90 minutes total exposure", "value": 100, "unit": "µM"}, {"measurement": "Effect on FFN206 uptake / vesicular loading", "setting": "[1]; HEK+VMAT2 cells", "value": "minor decrease in FFN206 uptake at the highest concentration"}, {"measurement": "Cell death", "setting": "[3]", "value": "70–80%"}]}, {"molecule": "COc1cc2c(cc1OC)C1CC(=O)C(CC(C)C)CN1CC2", "note": "(centres unmarked) [tetrabenazine, reference compound]", "values": [{"measurement": "Concentration showing essentially complete / total inhibition of VMAT2", "setting": "[1]", "value": 1, "unit": "µM"}, {"measurement": "Effect on FFN206 fluorescence", "setting": "[1]", "value": "almost total loss of FFN206 fluorescence"}, {"measurement": "FFN206 fluorescence in final 20 seconds of 1000 seconds uptake vs HEK+VMAT2", "setting": "[2]", "value": "significant differences"}]}, {"molecule": "hexabromocyclododecane", "values": [{"measurement": "VMAT2 inhibitor strength (in words)", "setting": "[1]; HEK+VMAT2 cells", "value": "weak inhibitors of VMAT2"}, {"measurement": "Effect on FFN206 uptake / vesicular loading", "setting": "[1]; HEK+VMAT2 cells", "value": "did not show impairment of vesicular loading"}]}]}
